# Article PMC4604124, “In Vitro Characterization of the Pharmacological Properties of the Anti-Cancer Chelator, Bp4eT, and Its Phase I Metabolites” (PLoS ONE, 2015)
# Values joined by “and” are separate entries in the source; they are usually repeats but may differ in a detail not shown here. Equal entries are not always repeated. Where two headings read alike, the source gives them in different places.
# Legend:
# [1] = Ascorbate oxidation assay (redox activity of iron complexes); assay type: biochemical;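 on %Fe 30min (ascorbate oxidation, Fe 100%), průměr: IBE 3 means excess free chelator over iron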;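 on %Fe 30min (ascorbate oxidation, Fe 100%): IBE 3 means excess free chelator over iron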;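 on Change of absorbance, odečet 0 (time 0 subtracted), čas 10, průměr: IBE 3 means excess free chelator over 10 µM FeCl3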;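 on Change of absorbance, odečet 0 (time 0 subtracted), čas 10: IBE 3 means excess free chelator over 10 µM FeCl3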;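 on Change of absorbance, odečet 0 (time 0 subtracted), čas 20, průměr: 100 µM ascorbate with 10 µM FeCl3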;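 on Change of absorbance, odečet 0 (time 0 subtracted), čas 20: 100 µM ascorbate with 10 µM FeCl3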;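 on Change of absorbance, odečet 0 (time 0 subtracted), čas 30, průměr: 100 µM ascorbate with 10 µM FeCl3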;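 on Change of absorbance, odečet 0 (time 0 subtracted), čas 30: 100 µM ascorbate with 10 µM FeCl3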;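 on odečet 0 (reading minus time 0 reading) at čas 20, single replicates: IBE 1 means fully coordinated iron chelator complexes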;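 on odečet 0 (reading minus time 0 reading) at čas 30, průměr (mean): IBE 1 means fully coordinated iron chelator complexes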;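 on odečet 0 (reading minus time 0 reading) at čas 30, single replicates: IBE 1 means fully coordinated iron chelator complexes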;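 on raw reading at čas 20 (time 20), průměr (mean): IBE 1 means fully coordinated iron chelator complexes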;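 on raw reading at čas 20 (time 20), single replicates: IBE 1 means fully coordinated iron chelator complexes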;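 on raw reading at čas 30 (time 30), průměr (mean): IBE 1 means fully coordinated iron chelator complexes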;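 on raw reading at čas 30 (time 30), single replicates: IBE 1 means fully coordinated iron chelator complexes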
# MCF-7 cells = test: Cellular 59Fe uptake from 59Fe2-transferrin; assay type: cell-based, human; parameters: key to Uptake 59Fe, Ave / Uptake 59Fe: % of internalized 59Fe in untreated control cells; conditions: Control Ave = 100
# Procedure, shortened: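 Confluent MCF-7 cells were incubated 3 h at 37°C with 0.75 μM ⁵⁹Fe₂-transferrin (500 pCi/pmol Fe) plus chelator at 25 μM. Membrane-bound ⁵⁹Fe was released with Pronase (1 mg/mL, 30 min, 4°C). Pronase-insensitive internalized ⁵⁹Fe was expressed as % of untreated control.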
# [2] = tested on: HL-60 human promyelocytic leukemia cells; test: MTT cytotoxicity assay, HL-60 cells; assay type: cell-based; conditions: for IC50: MTT, read-out: IC50
# Method: For cytotoxicity experiments, cancer cells were seeded at a density of 5,000 (MCF-7), 10,000 (HL-60) or 2,000 cells/well (HCT116 and A549) in 96-well plates (TPP) for 24 h/37°C prior to the addition of examined agents. The non-cancerous cells, 3T3 and H9c2 cells, were cultured for 24 h/37°C in 96-well plates at a density of 10,000 cells/well, the medium was then changed to serum- and pyruvate-free DMEM (Sigma-Aldrich) and incubated with the cells for another 24 h/37°C. The cytotoxic effects of Bp4eT and its metabolites were studied at different concentrations after a 72 h/37°C incubation. In order to aid the dissolution of the lipophilic ligands, 0.1% dimethyl sulfoxide (v/v) (DMSO; Sigma-Aldrich) was present in the culture medium of all groups. At this concentration, DMSO had no effect on cellular proliferation or viability.
# The viability of cells were determined using an MTT assay (Sigma-Aldrich) according to previously established methods. The optical density of soluble MTT was measured at λ = 570 nm, subtracting the λ = 690 nm background using a Tecan Infinite 200M plate reader (Tecan Group, Männedorf, Switzerland). The viability or proliferation of experimental groups was expressed as a percentage of the untreated controls (100%).
# SigmaStat for Windows 3.5 (Systat Software, San Jose, CA, USA) statistical software package was utilized to analyze results. The data are expressed as the mean ± SD of a given number of experiments. Statistical significance was determined using a one-way ANOVA with a Bonferroni post-hoc test or Student’s t-test. The results were considered to be statistically significant when p < 0.05. The IC50 values were calculated using CalcuSyn 2.0 software (Biosoft, Cambridge, UK). Cell cycle analysis was evaluated using MultiCycle AV Software (Phoenix Flow Systems, San Diego, CA, USA).
# [3] = sheet IBE 1, time 20, replicates
# [4] = sheet IBE 1, time 30, replicates
structure (smiles),measurement,setting,value
"CCNC(=O)NN=C(c1ccccc1)c1ccccn1 [E-Bp4eS, 2-benzoylpyridine 4-ethylsemicarbazone]","raw reading at čas 20 (time 20), průměr (mean)","[1]; sheet IBE 1, time 20, mean of 9 readings",0.7506
same,"odečet 0 (reading minus time 0 reading) at čas 20, single replicates",[1]; [3],-0.07064 and -0.07124 and -0.06354 and -0.07877 and -0.08537 and -0.07037 and -0.07092 and -0.07622 and -0.05562
same,"raw reading at čas 20 (time 20), single replicates",[1]; [3],0.7438 and 0.7526 and 0.7471 and 0.726 and 0.7319 and 0.7276 and 0.7684 and 0.7812 and 0.7766
same,"odečet 0 (reading minus time 0 reading) at čas 30, průměr (mean)","[1]; sheet IBE 1, time 30, mean",-0.1028
same,"raw reading at čas 30 (time 30), průměr (mean)","[1]; sheet IBE 1, time 30, mean of 9 readings",0.7192
same,"odečet 0 (reading minus time 0 reading) at čas 30, single replicates",[1]; [4],-0.1024 and -0.1054 and -0.09363 and -0.1081 and -0.1161 and -0.09952 and -0.1043 and -0.1086 and -0.08655
same,"raw reading at čas 30 (time 30), single replicates",[1]; [4],0.712 and 0.7184 and 0.717 and 0.6966 and 0.7011 and 0.6984 and 0.735 and 0.7488 and 0.7457
same,"%Fe 30min (ascorbate oxidation, Fe 100%), průměr","[1]; sheet IBE 3, 30min, Fe alone = 100%, mean (průměr) of the 9 replicates",117.9%
same,"%Fe 30min (ascorbate oxidation, Fe 100%)","[1]; sheet IBE 3, 30min, Fe alone = 100%, single replicates",124.2% and 115.8% and 108.1% and 126.9% and 132.9% and 126% and 114.7% and 109.6% and 103.1%
same,"Change of absorbance, odečet 0 (time 0 subtracted), čas 10, průměr","[1]; sheet IBE 3, time 10 minus time 0, mean (průměr)",-0.04086
same,"Change of absorbance, odečet 0 (time 0 subtracted), čas 10","[1]; sheet IBE 3, time 10 minus time 0, single replicates",-0.04474 and -0.03234 and -0.03864 and -0.04417 and -0.05097 and -0.04457 and -0.03984 and -0.03894 and -0.03354
same,"Change of absorbance, odečet 0 (time 0 subtracted), čas 20, průměr","[1]; sheet IBE 3, time 20 minus time 0, mean (průměr)",-0.076
same,"Change of absorbance, odečet 0 (time 0 subtracted), čas 20","[1]; sheet IBE 3, time 20 minus time 0, single replicates",-0.0807 and -0.0703 and -0.071 and -0.08341 and -0.08461 and -0.08331 and -0.07425 and -0.07045 and -0.06595
same,"Change of absorbance, odečet 0 (time 0 subtracted), čas 30, průměr","[1]; sheet IBE 3, time 30 minus time 0, mean (průměr)",-0.109
same,"Change of absorbance, odečet 0 (time 0 subtracted), čas 30","[1]; sheet IBE 3, time 30 minus time 0, single replicates",-0.1153 and -0.1075 and -0.1003 (2×) and -0.1178 and -0.1233 and -0.1169 and -0.105 and -0.09439
same,"Uptake 59Fe, Ave",MCF-7 cells; average of all replicates,105.146
same,Uptake 59Fe,MCF-7 cells; single replicate (three per date),102.106 and 110.477 and 102.867 and 98.5761 and 110.59 and 101.139 and 107.081 and 112.704 and 100.772
same,"Therapeutic index, IC50 non-cancerous cells / IC50 neoplastic cells",[2]; 3T3/HL-60,>6.6
same,"Therapeutic index, IC50 non-cancerous cells / IC50 neoplastic cells",[2]; H9c2/HL-60,5.9
same,IC50,"[2]; HL-60, 72 h/37°C, mean ± SD, n ≥ 4",151 ± 9.1 µM
same,"MTT, relative to control (0 = 100)","[2]; HL-60, 10 000 b/j, 3 μM, průměr (mean), sheet E-Bp4eS",97.96
same,"MTT, relative to control (0 = 100)","[2]; HL-60, 10 000 b/j, 3 μM, single experiment (date), sheet E-Bp4eS",100.761 and 104.358 and 95.5768 and 91.1569
same,"MTT, relative to control (0 = 100)","[2]; HL-60, 10 000 b/j, 10 μM, průměr (mean), sheet E-Bp4eS",99.97
same,"MTT, relative to control (0 = 100)","[2]; HL-60, 10 000 b/j, 10 μM, single experiment (date), sheet E-Bp4eS",101.567 and 98.1615 and 96.1949 and 103.964
same,"MTT, relative to control (0 = 100)","[2]; HL-60, 10 000 b/j, 30 μM, průměr (mean), sheet E-Bp4eS",95.62
same,"MTT, relative to control (0 = 100)","[2]; HL-60, 10 000 b/j, 30 μM, single experiment (date), sheet E-Bp4eS",99.0132 and 96.6154 and 90.9257 and 95.914
same,"MTT, relative to control (0 = 100)","[2]; HL-60, 10 000 b/j, 100 μM, průměr (mean), sheet E-Bp4eS",79.54
same,"MTT, relative to control (0 = 100)","[2]; HL-60, 10 000 b/j, 100 μM, single experiment (date), sheet E-Bp4eS",81.2266 and 75.7782 and 76.5508 and 84.6199
same,"MTT, relative to control (0 = 100)","[2]; HL-60, 10 000 b/j, 120 μM, průměr (mean), sheet E-Bp4eS",74.92
same,"MTT, relative to control (0 = 100)","[2]; HL-60, 10 000 b/j, 120 μM, single experiment (date), sheet E-Bp4eS",75.3051 and 80.9667 and 70.8568 and 72.5675
same,"MTT, relative to control (0 = 100)","[2]; HL-60, 10 000 b/j, 140 μM, průměr (mean), sheet E-Bp4eS",62.34
same,"MTT, relative to control (0 = 100)","[2]; HL-60, 10 000 b/j, 140 μM, single experiment (date), sheet E-Bp4eS",62.4842 and 69.381 and 45.4725 and 72.037
same,"MTT, relative to control (0 = 100)","[2]; HL-60, 10 000 b/j, 150 μM, průměr (mean), sheet E-Bp4eS",38.39
same,"MTT, relative to control (0 = 100)","[2]; HL-60, 10 000 b/j, 300 μM, průměr (mean), sheet E-Bp4eS",3.81
same,IC50,"[2]; HL-60, 10 000 b/j, single experiment (date), sheet E-Bp4eS",159 µM and 144 µM and 141 µM
same,IC50,"[2]; Homo sapiens, HL-60, HL-60, 10 000 b/j, průměr (mean), sheet E-Bp4eS",150 µM
same,IC50,"[2]; Homo sapiens, HL-60, HL-60, 10 000 b/j, single experiment (date), sheet E-Bp4eS",158 µM
